This assay deals with mGlu3 (Rattus norvegicus (Rat), UniProt P31422). Put plainly: mGlu3 GIRK thallium flux assay.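 For all read-outs here: kinetic fluorescence slope read shortly after thallium plus agonist addition, scaled between vehicle and maximal agonist control.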 Conditions: for EC50: read-out: mGlu3 PAM EC50, PAM mode, test compound, then EC20 glutamate […] later in the presence of thallium, mean ± SEM.

Bounds are passed on as bounds.

Chain of mGlu3 (P31422 23-879): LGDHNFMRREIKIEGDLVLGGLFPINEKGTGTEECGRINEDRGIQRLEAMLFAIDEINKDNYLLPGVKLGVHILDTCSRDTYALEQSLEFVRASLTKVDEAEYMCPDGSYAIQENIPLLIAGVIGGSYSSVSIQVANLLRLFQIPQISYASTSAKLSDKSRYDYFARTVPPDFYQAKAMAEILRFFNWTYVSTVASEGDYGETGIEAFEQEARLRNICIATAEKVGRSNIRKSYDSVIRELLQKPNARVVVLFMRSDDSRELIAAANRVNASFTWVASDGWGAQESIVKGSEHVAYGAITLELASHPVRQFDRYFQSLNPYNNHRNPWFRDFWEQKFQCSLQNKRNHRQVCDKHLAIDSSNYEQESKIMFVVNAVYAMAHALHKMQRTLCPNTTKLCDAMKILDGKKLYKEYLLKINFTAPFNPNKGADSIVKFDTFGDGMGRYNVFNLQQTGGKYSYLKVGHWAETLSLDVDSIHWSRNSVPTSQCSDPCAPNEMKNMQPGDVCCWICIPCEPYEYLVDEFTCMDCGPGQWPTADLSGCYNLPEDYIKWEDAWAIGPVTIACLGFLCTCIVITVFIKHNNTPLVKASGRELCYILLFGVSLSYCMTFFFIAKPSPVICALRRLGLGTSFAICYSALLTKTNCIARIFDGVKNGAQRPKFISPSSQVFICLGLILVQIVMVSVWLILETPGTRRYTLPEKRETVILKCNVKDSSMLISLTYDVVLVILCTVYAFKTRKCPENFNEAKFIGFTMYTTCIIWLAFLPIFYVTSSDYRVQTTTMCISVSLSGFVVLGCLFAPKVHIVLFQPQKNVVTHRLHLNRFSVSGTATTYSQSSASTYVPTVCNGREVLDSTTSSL

As a reminder, the EC50 is the concentration that produces a half-maximal response. Take `CC(=O)c1ccc(OCCCCOc2ccc(F)c(C(=O)O)c2)c(C)c1O` [Compound 55, 5-(4-(4-Acetyl-3-hydroxy-2-methylphenoxy)butoxy)-2-fluorobenzoic acid]: the EC50 is above 30 µM.

For `COc1ccc(C(=O)O)cc1-c1cncc(COc2ccc(C(=O)CC(C)(C)C)c(O)c2C)c1` [compound 160, 3-(5-((4-(3,3-Dimethylbutanoyl)-3-hydroxy-2-methylphenoxy)methyl)pyridin-3-yl)-4-methoxybenzoic acid], the Emax (read-out: mGlu3 PAM Max) is 110 ± 2.4%.

In the case of `CCC(=O)c1ccc(OCCCCOc2ccc(C(=O)O)cc2C)c(C)c1O` [Compound 61, 4-(4-(3-Hydroxy-2-methyl-4-propionylphenoxy)butoxy)-3-methylbenzoic acid], the EC50 is above 30 µM.

Regarding `CC(=O)c1ccc(OCCCCOc2cccc(C(=O)O)c2C)c(C)c1O` [Compound 54, 3-(4-(4-Acetyl-3-hydroxy-2-methylphenoxy)butoxy)-2-methylbenzoic acid], the EC50 was above 30 µM.

For `CC(=O)c1ccc(OCCCCOc2ccc(C(=O)O)cc2C)c(C)c1O` [Compound 56, 4-(4-(4-Acetyl-3-hydroxy-2-methylphenoxy)butoxy)-3-methylbenzoic acid], the EC50 is above 30 µM.

`CCC(=O)c1ccc(OCCCCOc2cccc(C(=O)O)c2C)c(C)c1O` [Compound 59, 3-(4-(3-Hydroxy-2-methyl-4-propionylphenoxy)butoxy)-2-methylbenzoic acid]: the EC50 was above 30 µM.

In the case of `Cc1c(OCCCCOc2ccc(CCC(=O)O)c(O)c2)ccc(C(=O)CC(C)C)c1O` [Compound 5, reference compound], the 50% effective concentration (EC50) is above 30 µM.

Regarding `Cc1c(OCCCCOc2ccc(C(=O)C(C)C)c(O)c2C)cccc1C(=O)O` [compound 64, 3-(4-(3-Hydroxy-4-isobutyryl-2-methylphenoxy)butoxy)-2-methylbenzoic acid], the EC50 is above 30 µM.

`Cc1c(OCCCCOc2ccccc2C(=O)O)ccc(C(=O)CC2CCCC2)c1O` [Compound 29, 2-(4-(4-(2-Cyclopentylacetyl)-3-hydroxy-2-methylphenoxy)butoxy)benzoic acid]: the EC50 was above 30 µM.

For the compound `COc1cc(C(=O)O)ccc1OCCCCOc1ccc(C(C)=O)c(O)c1C` [Compound 52, 4-(4-(4-Acetyl-3-hydroxy-2-methylphenoxy)butoxy)-3-methoxybenzoic acid], the EC50 was above 30 µM.

In the case of `COc1cc(C(=O)O)ccc1OCCCCOc1ccc(C(=O)C(C)C)c(O)c1C` [Compound 62, 4-(4-(3-Hydroxy-4-isobutyryl-2-methylphenoxy)butoxy)-3-methoxybenzoic acid], the EC50 is above 30 µM.

Take `COc1ccc(C(=O)O)cc1OCCCCOc1ccc(C(C)=O)c(O)c1C` [Compound 53, 3-(4-(4-Acetyl-3-hydroxy-2-methylphenoxy)butoxy)-4-methoxybenzoic acid]: the EC50 was above 30 µM.

Turning to `Cc1cc(C(=O)O)ccc1OCCCCOc1ccc(C(=O)C(C)C)c(O)c1C` [compound 66, 4-(4-(3-Hydroxy-4-isobutyryl-2-methylphenoxy)butoxy)-3-methylbenzoic acid], the EC50 is above 30 µM.

For `CCC(=O)c1ccc(OCCCCOc2ccc(C(=O)O)cc2OC)c(C)c1O` [Compound 57, 4-(4-(3-Hydroxy-2-methyl-4-propionylphenoxy)butoxy)-3-methoxybenzoic acid], the EC50 was above 30 µM.

Turning to `Cc1c(OCCCCOc2ccc(C(=O)O)c(Cl)c2)ccc(C(=O)CC(C)C)c1C` [Compound 30, 2-Chloro-4-(4-(2,3-dimethyl-4-(3-methylbutanoyl)phenoxy)butoxy)benzoic acid], the EC50 was above 30 µM.

On to `Cc1c(OCCCCOc2ccccc2C(=O)O)ccc(C(=O)CC2CCCC2)c1C` [Compound 27, 2-(4-(4-(2-Cyclopentylacetyl)-2,3-dimethylphenoxy)butoxy)benzoic acid], for which the EC50 was above 30 µM.

`Cc1c(OCCCCOc2ccccc2C(=O)O)ccc(C(=O)CC(C)C)c1O` [Compound 28, 2-(4-(3-Hydroxy-2-methyl-4-(3-methylbutanoyl)phenoxy)butoxy)benzoic acid]: the EC50 is above 30 µM.
